Results taken from paper PMC8198038, “In Vitro Evaluation of Antiproliferative Properties of Novel Organotin(IV) Carboxylate Compounds with Propanoic Acid Derivatives on a Panel of Human Cancer Cell Lines” (Molecules, 2021).

Tests used:
[1] = tested on: PC-3 (human prostate cancer) cells; assay: MTT assay, PC-3 cells; format: cell-based; conditions: read-out: IC50 (mean ± SD), PC-3, MTT
Description: (§1) The cell proliferations of ligand precursors and organotin(IV) compounds were evaluated with the aid of MTT (3-(4,5-dimethylthiazol-2-yl)-2,5-12 diphenyltetrazolium bromide) and CV (crystal violet) assays toward prostate (PC-3), colon (HT-29), breast (MCF-7) and hepatic (HepG2) cancer cell lines, and normal mouse embryonic fibroblast cells (NIH 3T3). The cells were cultivated in T75 flasks containing 10 mL of complete medium and kept at 37 °C and 5% CO2 […]. The nutrient medium was RPMI-1640 (PAA Laboratories) supplemented with 10% foetal bovine serum, L-glutamine, and penicillin/streptomycin (Sigma). Afterward, 5.000 cells of PC-3 and MCF-7 and 1.500 cells of HT-29 and HepG2 were transferred into 96 well-plates and used for MTT and CV assays. For microscopy investigations as well as FACS measurements (except for ROS/RNS measurements), MCF-7 cells were seeded overnight in 6-well plates (150,000 cells/well) in […] of complete medium. […] In all assays, control cells were untreated MCF-7 cells incubated for the same time period as treated cells and treated with appropriate reagents in various assays. BD FACS Aria III was used for flow cytometry experiments and results were analysed using BD FACSDiva software (BD Biosciences, Heidelberg, Germany) and Cyflogic (V 1.2.1, CyFlo Ltd., Turku, Finland). A fluorescence microscope Invitrogen EVOS FL 2 Auto 2 Cell Imaging System was used for visualization of the cells as well as for detection of fluorescence in the cells.
(§2) Ligands HL1‒HL3, organotin(IV) compounds, and cisplatin were investigated in 9 different concentrations (100, 50, 10, 5, 1, 0.5, 0.1, 0.05, 0.01 μM). Using the complete medium, each stock solution of the test compounds (20 mM in DMSO) was diluted to obtain the working solution. The final concentration of DMSO never overstepped 0.5%, which is non-toxic to the cells. Three technical replicates were performed for each concentration. The treated cells were incubated for 48 h at 37 °C under 5% CO2 and the viability of the cells was determined using MTT and CV assays according to the literature procedure. The IC50 values, defined as 50% inhibitory concentration, were calculated with a four-parameter logistic function and presented in a mean. All experiments were performed in triplicate.

[2] = tested on: MCF-7 (breast cancer) cells; assay: MTT assay, MCF-7 cells; format: cell-based, human; conditions: for IC50: read-out: IC50 (mean ± SD), MCF-7, MTT
Description: as §1, §2

[3] = tested on: MCF-7 (breast cancer) cells; assay: CV (crystal violet) assay, MCF-7 cells; format: cell-based, human; conditions: read-out: IC50 (mean ± SD), MCF-7, CV
Description: as §1, §2

[4] = tested on: NIH3T3 (normal mouse embryonic fibroblast) cells; assay: MTT assay, NIH3T3 cells; format: cell-based; conditions: read-out: IC50 (mean ± SD), NIH3T3, MTT
Description: as §1, §2

[5] = tested on: HepG2 (hepatocellular cancer) cells; assay: CV (crystal violet) assay, HepG2 cells; format: cell-based, human; conditions: read-out: IC50 (mean ± SD), HepG2, CV
Description: as §1, §2

[6] = tested on: PC-3 (human prostate cancer) cells; assay: CV (crystal violet) assay, PC-3 cells; format: cell-based; conditions: read-out: IC50 (mean ± SD), PC-3, CV
Description: as §1, §2

[7] = tested on: NIH3T3 (normal mouse embryonic fibroblast) cells; assay: CV (crystal violet) assay, NIH3T3 cells; format: cell-based; conditions: read-out: IC50 (mean ± SD), NIH3T3, CV
Description: as §1, §2

[8] = tested on: HT-29 (human colorectal adenocarcinoma) cells; assay: CV (crystal violet) assay, HT-29 cells; format: cell-based; conditions: read-out: IC50 (mean ± SD), HT-29, CV
Description: as §1, §2

[9] = tested on: HepG2 (hepatocellular cancer) cells; assay: MTT assay, HepG2 cells; format: cell-based, human; conditions: read-out: IC50 (mean ± SD), HepG2, MTT
Description: as §1, §2

[10] = tested on: HT-29 (human colorectal adenocarcinoma) cells; assay: MTT assay, HT-29 cells; format: cell-based; conditions: read-out: IC50 (mean ± SD), HT-29, MTT
Description: as §1, §2

[11] = tested on: PC-3, HT-29, MCF-7 and HepG2 tumour cell lines; assay: MTT and CV assays, panel of four tumour cell lines; format: cell-based, human; conditions: applied concentrations up to 100 µM, 48 h
Description: The in vitro anticancer activity of ligand precursors, HL1–HL3 and its organotin(IV) compounds was tested in a panel of four tumour cell lines: PC3 (prostate cancer cells), HT-29 (colon cancer cells), MCF-7 (breast cancer cells), and HepG2 (hepatic cancer cells), as well as on normal NIH3T3 cells (mouse embryonic fibroblast) using MTT and CV assays after 48 h of incubation.
The cell proliferations of ligand precursors and organotin(IV) compounds were evaluated with the aid of MTT (3-(4,5-dimethylthiazol-2-yl)-2,5-12 diphenyltetrazolium bromide) and CV (crystal violet) assays toward prostate (PC-3), colon (HT-29), breast (MCF-7) and hepatic (HepG2) cancer cell lines, and normal mouse embryonic fibroblast cells (NIH 3T3). The cells were cultivated in T75 flasks containing 10 mL of complete medium and kept at 37 °C and 5% CO2 […]. The nutrient medium was RPMI-1640 (PAA Laboratories) supplemented with 10% foetal bovine serum, L-glutamine, and penicillin/streptomycin (Sigma). Afterward, 5.000 cells of PC-3 and MCF-7 and 1.500 cells of HT-29 and HepG2 were transferred into 96 well-plates and used for MTT and CV assays. For microscopy investigations as well as FACS measurements (except for ROS/RNS measurements), MCF-7 cells were seeded overnight in 6-well plates (150,000 cells/well) in […] of complete medium. […] BD FACS Aria III was used for flow cytometry experiments and results were analysed using BD FACSDiva software (BD Biosciences, Heidelberg, Germany) and Cyflogic (V 1.2.1, CyFlo Ltd., Turku, Finland). A fluorescence microscope Invitrogen EVOS FL 2 Auto 2 Cell Imaging System was used for visualization of the cells as well as for detection of fluorescence in the cells.
Ligands HL1‒HL3, organotin(IV) compounds, and cisplatin were investigated in 9 different concentrations (100, 50, 10, 5, 1, 0.5, 0.1, 0.05, 0.01 μM). […] The treated cells were incubated for 48 h at 37 °C under 5% CO2 and the viability of the cells was determined using MTT and CV assays according to the literature procedure. […]

[12] = MTT assay, 48 h incubation, normal cells
[13] = CV assay, 48 h incubation, normal cells
[14] = Homo sapiens, PC-3, MTT assay, 48 h incubation
[15] = Homo sapiens, MCF7, MTT assay, 48 h incubation
[16] = Homo sapiens, MCF7, CV assay, 48 h incubation
[17] = Mus musculus, NIH3T3, MTT assay, 48 h incubation, normal cells
[18] = Homo sapiens, HepG2, CV assay, 48 h incubation
[19] = Homo sapiens, PC-3, CV assay, 48 h incubation
[20] = Mus musculus, NIH3T3, CV assay, 48 h incubation, normal cells
[21] = Homo sapiens, HT-29, CV assay, 48 h incubation
[22] = Homo sapiens, HepG2, MTT assay, 48 h incubation
[23] = Homo sapiens, HT-29, MTT assay, 48 h incubation

IC50 [1, 14] | IC50 [2, 15] | IC50 [3, 16] | IC50 [5, 18] | IC50 [6, 19] | IC50 [8, 21] | IC50 [9, 22] | Molecule | IC50 ([1]; MTT assay, 48 h incubation) | IC50 ([2]; MTT assay, 48 h incubation) | IC50 ([3]; CV assay, 48 h incubation) | IC50 [4, 12] | IC50 ([5]; CV assay, 48 h incubation) | IC50 ([6]; CV assay, 48 h incubation) | IC50 [7, 13] | IC50 ([8]; CV assay, 48 h incubation) | IC50 ([9]; MTT assay, 48 h incubation) | IC50 ([10]; MTT assay, 48 h incubation) | influence on cell proliferation [11] | IC50 [4, 17] | IC50 [7, 20] | other results
 |  |  |  |  |  |  | (3-(4,5-bis(4-Methoxylphenyl)oxazol-2-yl)propanoato)triphenyltin(IV) [Ph3SnL2] | 0.575 ± 0.043 µM | 0.309 ± 0.059 µM | 0.543 ± 0.026 µM | 1.99 ± 1.12 µM | 0.628 ± 0.165 µM | 0.785 ± 0.018 µM | 2.61 ± 0.52 µM | 0.727 ± 0.018 µM | 0.223 ± 0.084 µM | 0.453 ± 0.063 µM |  |  |  | 
 |  |  |  |  |  |  | O=C(O)CCc1nc(-c2ccccc2)c(-c2ccccc2)o1 [HL1, 3-(4,5-diphenyloxazol-2-yl)propanoic acid, reference compound] |  |  |  |  |  |  |  |  |  |  | did not affect cell proliferation in any cancer cell line tested |  |  | IC50 ([1]; Homo sapiens, PC-3, 48 h): > 100 µM; IC50 ([2]; Homo sapiens, MCF7, 48 h): > 100 µM; IC50 ([3]; Homo sapiens, MCF7, 48 h): > 100 µM; IC50 ([4]; Mus musculus, NIH3T3, 48 h): > 100 µM; IC50 ([5]; Homo sapiens, HepG2, 48 h): > 100 µM; IC50 ([6]; Homo sapiens, PC-3, 48 h): > 100 µM; IC50 ([7]; Mus musculus, NIH3T3, 48 h): > 100 µM; IC50 ([8]; Homo sapiens, HT-29, 48 h): > 100 µM; IC50 ([9]; Homo sapiens, HepG2, 48 h): > 100 µM; IC50 ([10]; Homo sapiens, HT-29, 48 h): > 100 µM
 |  |  |  |  |  |  | O=C(CCN1C(=O)NC(c2ccccc2)(c2ccccc2)C1=O)[O][Sn]([c]1ccccc1)([c]1ccccc1)[c]1ccccc1 [Ph3SnL3, (3-(2,5-Dioxo-4,4-diphenylimidazolidin-1-yl)propanoato)triphenyltin(IV)] | 0.211 ± 0.042 µM | 0.131 ± 0.017 µM | 0.219 ± 0.016 µM | 1.82 ± 0.99 µM | 0.255 ± 0.085 µM | 0.458 ± 0.029 µM | 2.09 ± 1.03 µM | 0.471 ± 0.048 µM | 0.1 ± 0.03 µM | 0.218 ± 0.015 µM |  |  |  | fold higher activity compared to cisplatin against MCF-7 ([2]; Table 1 IC50 values, 48 h): up to 120 fold
> 100 µM | > 100 µM | > 100 µM | > 100 µM | > 100 µM | > 100 µM | > 100 µM | O=C(O)CCN1C(=O)NC(c2ccccc2)(c2ccccc2)C1=O [HL3, 3-(2,5-Dioxo-4,4-diphenylimidazolidin-1-yl)propanoic acid] |  |  |  |  |  |  |  |  |  |  | did not affect cell proliferation in any cancer cell line tested | > 100 µM | > 100 µM | IC50 [10, 23]: > 100 µM
> 100 µM | > 100 µM | > 100 µM | > 100 µM | > 100 µM | > 100 µM | > 100 µM | COc1ccc(-c2nc(CCC(=O)O)oc2-c2ccc(OC)cc2)cc1 [HL2, 3-(4,5-bis(4-Methoxylphenyl)oxazol-2-yl)propanoic acid] |  |  |  |  |  |  |  |  |  |  | did not affect cell proliferation in any cancer cell line tested | > 100 µM | > 100 µM | IC50 [10, 23]: > 100 µM
